From patent publication US20230089867A1, “CYCLIC PENTAMER COMPOUNDS AS PROPROTEIN CONVERTASE SUBTILISIN/KEXIN TYPE 9 (PCSK9) INHIBITORS FOR THE TREATMENT OF METABOLIC DISORDER” (Novartis AG, priority 2018, published 2023)

Molecular target: human PCSK9 (Homo sapiens, UniProt Q8NBP7)
Assay: PCSK9 ligand binding TR-FRET assay (interference with binding of human PCSK9 to human LDLR)
Conditions: for Max % inhibition: PCSK9 FRET assay, efficacy (Amax), 100% = 1 uM unlabeled human PCSK9, 0% = DMSO; for IC50: TR-FRET, human PCSK9 Alexa Fluor 647 / human LDLR extracellular domain-Europium Kryptate, read-out: PCSK9 FRET Assay IC50
Procedure, shortened: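 Threefold compound dilutions were pre-incubated 30 min with PCSK9, after which 4 nM Europium Kryptate-tagged human LDLR ectodomain was added for a further 2 h.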

human PCSK9, sequence (Q8NBP7 153-692): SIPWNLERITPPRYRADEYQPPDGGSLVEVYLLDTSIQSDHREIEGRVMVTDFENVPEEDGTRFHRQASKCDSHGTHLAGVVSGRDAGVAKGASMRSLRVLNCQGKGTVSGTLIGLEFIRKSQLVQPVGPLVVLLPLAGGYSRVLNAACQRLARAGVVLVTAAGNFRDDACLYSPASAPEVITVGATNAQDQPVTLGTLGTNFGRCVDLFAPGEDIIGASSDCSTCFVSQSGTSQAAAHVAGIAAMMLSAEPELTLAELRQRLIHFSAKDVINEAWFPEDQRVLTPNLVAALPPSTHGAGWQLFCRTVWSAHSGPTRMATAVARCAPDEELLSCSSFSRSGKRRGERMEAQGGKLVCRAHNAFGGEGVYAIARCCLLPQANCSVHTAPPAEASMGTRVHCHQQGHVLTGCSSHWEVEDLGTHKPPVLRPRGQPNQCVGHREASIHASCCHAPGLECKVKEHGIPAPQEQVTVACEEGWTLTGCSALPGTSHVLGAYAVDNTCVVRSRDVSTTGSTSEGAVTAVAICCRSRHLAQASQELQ
human PCSK9, sequence (Q8NBP7 31-152 partner limits assumed): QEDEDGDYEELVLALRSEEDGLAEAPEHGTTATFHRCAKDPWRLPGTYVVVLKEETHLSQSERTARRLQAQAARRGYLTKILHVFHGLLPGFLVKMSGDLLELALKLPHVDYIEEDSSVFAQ

Max % inhibition [%]	IC50 [nM]	SMILES
85.21	59.8	CCCC#Cc1ncc(-c2ccc(Oc3cc(Cl)ccc3CN3C(=O)C[C@@H](Cc4ccccc4)C(=O)N(C)[C@@H](C)CNC(=O)C[C@H](Cc4ccc(Cl)cc4)N(C)C(=O)[C@H](COC)NC(=O)[C@@H]3C)cc2)n1C [Compound 30, (2S,5S,8S,13S,16R)-16-benzyl-1-(4-chloro-2-(4-(1-methyl-2-(pent-1-yn-1-yl)-1H-imidazol-5-yl)phenoxy)benzyl)-8-(4-chlorobenzyl)-5-(methoxymethyl)-2,7,13,14-tetramethyl-1,4,7,11,14-pentaazacyclooctadecane-3,6,10,15,18-pentaone]
60.09	787	C[C@H]1CNC(=O)C[C@H](Cc2ccc(Cl)cc2)N(C)C(=O)[C@H](C2COC2)NC(=O)[C@H](C)N(Cc2ccc(Cl)cc2Oc2ccc(-c3cnc(CN(C)C)n3C)cc2)C(=O)C[C@@H](Cc2ccccc2)C(=O)N1C [Compound 31, (2S,5S,8S,13S,16R)-16-benzyl-1-(4-chloro-2-(4-(2-((dimethylamino)methyl)-1-methyl-1H-imidazol-5-yl)phenoxy)benzyl)-8-(4-chlorobenzyl)-2,7,13,14-tetramethyl-5-(oxetan-3-yl)-1,4,7,11,14-pentaazacyclooctadecane-3,6,10,15,18-pentaone]
103.15	1.8	COC[C@@H]1NC(=O)[C@H](C)N(Cc2ccc(Cl)cc2Oc2ccc(-c3cnc(CN(C)C)n3C)cc2)C(=O)C[C@@H](Cc2ccccc2)C(=O)N(C)C[C@H](C)NC(=O)C[C@H](Cc2ccc(Cl)cc2)N(C)C1=O [Compound 32, (2S,5S,8S,12S,16R)-16-benzyl-1-(4-chloro-2-(4-(2-((dimethylamino)methyl)-1-methyl-1H-imidazol-5-yl)phenoxy)benzyl)-8-(4-chlorobenzyl)-5-(methoxymethyl)-2,7,12,14-tetramethyl-1,4,7,11,14-pentaazacyclooctadecane-3,6,10,15,18-pentaone]
95.65	1.3	COC[C@@H]1NC(=O)[C@H](C)N(Cc2ccc(Cl)cc2Oc2ccc(-c3cnc(CN(C)C)n3C)cc2)C(=O)C[C@@H](Cc2ccc(F)c(F)c2F)C(=O)N(C)[C@@H](C)CNC(=O)C[C@H](Cc2ccc(Cl)cc2)N(C)C1=O [Compound 33, (2S,5S,8S,13S,16R)-1-(4-chloro-2-(4-(2-((dimethylamino)methyl)-1-methyl-1H-imidazol-5-yl)phenoxy)benzyl)-8-(4-chlorobenzyl)-5-(methoxymethyl)-2,7,13,14-tetramethyl-16-(2,3,4-trifluorobenzyl)-1,4,7,11,14-pentaazacyclooctadecane-3,6,10,15,18-pentaone]
95.86	1	COC[C@@H]1NC(=O)[C@H](C)N(Cc2c(F)cc(Cl)cc2Oc2ccc(-c3cnc(CN4CCCC4)n3C)cc2)C(=O)C[C@@H](Cc2ccccc2)C(=O)N(C)[C@@H](C)CNC(=O)C[C@H](Cc2ccc(Cl)cc2)N(C)C1=O [Compound 34, (2S,5S,8S,13S,16R)-16-benzyl-1-(4-chloro-2-fluoro-6-(4-(1-methyl-2-(pyrrolidin-1-ylmethyl)-1H-imidazol-5-yl)phenoxy)benzyl)-8-(4-chlorobenzyl)-5-(methoxymethyl)-2,7,13,14-tetramethyl-1,4,7,11,14-pentaazacyclooctadecane-3,6,10,15,18-pentaone]
104.05	4.2	COC[C@@H]1NC(=O)[C@H](C)N(Cc2ccc(OC(F)(F)F)cc2Oc2ccc(-c3cnc(CN(C)C)n3C)cc2)C(=O)C[C@@H](Cc2ccccc2)C(=O)N(C)[C@@H](C)CNC(=O)C[C@H](Cc2ccc(Cl)cc2)N(C)C1=O [Compound 35, (2S,5S,8S,13S,16R)-16-benzyl-8-(4-chlorobenzyl)-1-(2-(4-(2-((dimethylamino)methyl)-1-methyl-1H-imidazol-5-yl)phenoxy)-4-(trifluoromethoxy)benzyl)-5-(methoxymethyl)-2,7,13,14-tetramethyl-1,4,7,11,14-pentaazacyclooctadecane-3,6,10,15,18-pentaone]
